Format in all cases: in vivo
Assay [1] has as its system Cotton. Put plainly: Preemergence Herbicidal Activity, Cotton. The note with it: Gossypium hirsutum, pre-emergence; for plant injury at 1000 g/ha: 1.0 kg/ha; for plant injury at 500 g/ha: 0.5 kg/ha. Summed up:
(§1)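 Percent control scored after pre- or postemergence treatment at rates in kg/ha, using test compounds generally formulated in 50/50 acetone/water.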

Assay [2] has as its system Soybean. Description: Preemergence Herbicidal Activity, Soybean. The following applies: Glycine max, pre-emergence; for plant injury at 1000 g/ha: 1.0 kg/ha; for plant injury at 500 g/ha: 0.5 kg/ha. A digest of the protocol: (§2)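 Kilogram-per-hectare application rates; outcome scored by percent control of treated plants.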
For assay [3], the system named is Field Corn. Description: Preemergence Herbicidal Activity, Field Corn. The note with it: Zea mays, pre-emergence; for plant injury at 1000 g/ha: 1.0 kg/ha; for plant injury at 500 g/ha: 0.5 kg/ha. A digest of the protocol:
as §2

Assay [4] relates to Rice. Put plainly: Preemergence Herbicidal Activity, Rice. The note with it: Oryza sativa, pre-emergence; for plant injury at 1000 g/ha: 1.0 kg/ha; for plant injury at 500 g/ha: 0.5 kg/ha. A digest of the protocol: as §2
The test system of assay [5] is Wheat. Description: Preemergence Herbicidal Activity, Wheat. The note with it: Triticum aestivum, pre-emergence; for plant injury at 1000 g/ha: 1.0 kg/ha; for plant injury at 500 g/ha: 0.5 kg/ha. Summed up: as §2
For assay [6], the system named is Field Bindweed. Put plainly: Preemergence Herbicidal Activity, Field Bindweed. The note with it: pre-emergence; for pest or weed control at 1000 g/ha: 1.0 kg/ha; for pest or weed control at 500 g/ha: 0.5 kg/ha. A digest of the protocol:
as §1

Assay [7] relates to Morningglory. Put plainly: Preemergence Herbicidal Activity, Morningglory. The note with it: Ipomoea, pre-emergence; for pest or weed control at 1000 g/ha: 1.0 kg/ha; for pest or weed control at 500 g/ha: 0.5 kg/ha. Summed up:
as §1

In assay [8] the test system is Velvetleaf. Put plainly: Preemergence Herbicidal Activity, Velvetleaf. The following applies: Abutilon theophrasti, pre-emergence; for pest or weed control at 1000 g/ha: 1.0 kg/ha; for pest or weed control at 500 g/ha: 0.5 kg/ha. A digest of the protocol:
as §1

Assay [9] deals with Barnyardgrass. Description: Preemergence Herbicidal Activity, Barnyardgrass. The note with it: Echinochloa crus-galli, pre-emergence; for pest or weed control at 1000 g/ha: 1.0 kg/ha; for pest or weed control at 500 g/ha: 0.5 kg/ha. Summed up:
(§3)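 Application rate is expressed per hectare in kilograms. Values are percent control.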

Assay [10] deals with Green Foxtail. Description: Preemergence Herbicidal Activity, Green Foxtail. The following applies: Setaria viridis, pre-emergence; for pest or weed control at 1000 g/ha: 1.0 kg/ha; for pest or weed control at 500 g/ha: 0.5 kg/ha. A digest of the protocol: as §3
Assay [11] deals with Johnsongrass. Description: Preemergence Herbicidal Activity, Johnsongrass. The note with it: Sorghum halepense, pre-emergence; for pest or weed control at 1000 g/ha: 1.0 kg/ha; for pest or weed control at 500 g/ha: 0.5 kg/ha. Summed up: as §3
Assay [12] relates to Cotton. Description: Postemergence Herbicidal Activity, Cotton. The note with it: Gossypium hirsutum, post-emergence; for plant injury at 1000 g/ha: 1.0 kg/ha; for plant injury at 500 g/ha: 0.5 kg/ha. A digest of the protocol: as §1
In assay [13] the test system is Soybean. Put plainly: Postemergence Herbicidal Activity, Soybean. The following applies: Glycine max, post-emergence; for plant injury at 1000 g/ha: 1.0 kg/ha; for plant injury at 500 g/ha: 0.5 kg/ha. Summed up:
as §2

The subject of assay [14] is Field Corn. Description: Postemergence Herbicidal Activity, Field Corn. The following applies: Zea mays, post-emergence; for plant injury at 1000 g/ha: 1.0 kg/ha; for plant injury at 500 g/ha: 0.5 kg/ha. Summed up:
as §2

Assay [15] has as its system Rice. Put plainly: Postemergence Herbicidal Activity, Rice. The note with it: Oryza sativa, post-emergence; for plant injury at 1000 g/ha: 1.0 kg/ha; for plant injury at 500 g/ha: 0.5 kg/ha. A digest of the protocol: as §2
Assay [16] concerns Wheat. Description: Postemergence Herbicidal Activity, Wheat. The note with it: Triticum aestivum, post-emergence; for plant injury at 1000 g/ha: 1.0 kg/ha; for plant injury at 500 g/ha: 0.5 kg/ha. Summed up:
as §2

In assay [17] the test system is Field Bindweed. Description: Postemergence Herbicidal Activity, Field Bindweed. The following applies: post-emergence; for pest or weed control at 1000 g/ha: 1.0 kg/ha; for pest or weed control at 500 g/ha: 0.5 kg/ha. The text has this: The herbicidal data in the following Tables 3 and 4 was obtained in the manner described in PCT published application no. WO 85/01939, previously mentioned, usually employing solutions of the herbicidal compound in 50/50 acetone/water mixtures. In those tables, the test compounds are identified by numbers which correspond to those in Table 1, "kg/ha" is kilograms per hectare, and "% C" is percent control.

The subject of assay [18] is Morningglory. Put plainly: Postemergence Herbicidal Activity, Morningglory. The following applies: Ipomoea, post-emergence; for pest or weed control at 1000 g/ha: 1.0 kg/ha; for pest or weed control at 500 g/ha: 0.5 kg/ha. A digest of the protocol: as §1
In assay [19] the test system is Velvetleaf. Description: Postemergence Herbicidal Activity, Velvetleaf. The following applies: Abutilon theophrasti, post-emergence; for pest or weed control at 1000 g/ha: 1.0 kg/ha; for pest or weed control at 500 g/ha: 0.5 kg/ha. A digest of the protocol: as §1
Assay [20] deals with Barnyardgrass. Description: Postemergence Herbicidal Activity, Barnyardgrass. The note with it: Echinochloa crus-galli, post-emergence; for pest or weed control at 1000 g/ha: 1.0 kg/ha; for pest or weed control at 500 g/ha: 0.5 kg/ha. Summed up:
as §3

In assay [21] the test system is Green Foxtail. Put plainly: Postemergence Herbicidal Activity, Green Foxtail. The following applies: Setaria viridis, post-emergence; for pest or weed control at 1000 g/ha: 1.0 kg/ha; for pest or weed control at 500 g/ha: 0.5 kg/ha. Summed up: as §3
Assay [22] concerns Johnsongrass. Put plainly: Postemergence Herbicidal Activity, Johnsongrass. The following applies: Sorghum halepense, post-emergence; for pest or weed control at 1000 g/ha: 1.0 kg/ha; for pest or weed control at 500 g/ha: 0.5 kg/ha. Summed up:
as §3

The source of these data is patent US4868321A, “Isothiocyanate intermediates” (FMC Corporation, priority 1988, dated 1989).

Regarding `CCN(c1cc(-n2nnn(CCCF)c2=O)c(F)cc1Cl)S(=O)(=O)CC` [Compound 13, 1-[4-chloro-2-fluoro-5-[(N--ethyl-N--ehtylsulfonyl)amino]phenyl]-1,4-dihydro-4-(3-fluoropropyl)-5H--tetrazol-5-one], the plant injury – broadly, the degree to which the test organism was suppressed or injured, in per cent – at 1000 g/ha in the assay on Cotton [1] is 95%; with Soybean [2], 95%; with Field Corn [3], 100%; with Rice [4], 100%; with Wheat [5], 100%; in the assay on Cotton [12], 100%. Also, the plant injury at 1000 g/ha in the assay on Soybean [13] is 95%; in the assay with Field Corn [14], 100%; with Rice [15], 100%; in the assay on Wheat [16], 100%. In addition, the pest or weed control – broadly, the degree to which the test organism was suppressed or injured, in per cent – at 1000 g/ha in the assay with Field Bindweed [6] was 100%; in the assay on Morningglory [7], 95%; in the assay on Velvetleaf [8], 100%; with Barnyardgrass [9], 100%; in the assay on Green Foxtail [10], 100%; with Johnsongrass [11], 100%. For the same molecule, the pest or weed control at 1000 g/ha in the assay with Field Bindweed [17], in the assay with Morningglory [18], in the assay with Velvetleaf [19], with Barnyardgrass [20], in the assay on Green Foxtail [21] and in the assay with Johnsongrass [22] was 100% each time.

`CCS(=O)(=O)N(COC)c1cc(-n2nnn(CCCF)c2=O)c(F)cc1Cl` [Compound 15, 1-[4-chloro-2-fluoro-5-[(N---ethylsulfonyl-N--methoxymethyl)amino]-phenyl]-1,4-dihydro-4-(3-fluoropropyl)-5H--tetrazol-5-one]: the plant injury at 500 g/ha in the assay with Cotton [1] stood at 100%; in the assay with Soybean [2] it was 95%; with Field Corn [3] it was 100%; with Rice [4] it was 100%; in the assay with Wheat [5] it was 100%; in the assay with Cotton [12] it was 100%. The plant injury at 500 g/ha with Soybean [13] stood at 95%; with Field Corn [14], 95%; with Rice [15], 60%; in the assay with Wheat [16], 100%. The pest or weed control at 500 g/ha with Field Bindweed [6], in the assay on Morningglory [7], with Velvetleaf [8], in the assay with Barnyardgrass [9], with Green Foxtail [10] and in the assay on Johnsongrass [11] was 100% in each case. The pest or weed control at 500 g/ha worked out at 80% in the assay with Field Bindweed [17]; 100% in the assay on Morningglory [18]; 100% in the assay on Velvetleaf [19]; 80% in the assay on Barnyardgrass [20]; 90% in the assay on Green Foxtail [21]; 80% with Johnsongrass [22].

As for `CCS(=O)(=O)N(CC#N)c1cc(-n2nnn(CCCF)c2=O)c(F)cc1Cl` [Compound 16], the plant injury at 500 g/ha came to 100% with Cotton [1]; 80% in the assay with Soybean [2]; 95% with Field Corn [3]; 70% in the assay on Rice [4]; 60% in the assay on Wheat [5]; 100% in the assay on Cotton [12]. The plant injury at 500 g/ha was 70% in the assay with Soybean [13], 50% in the assay on Field Corn [14], 50% with Rice [15] and 60% in the assay on Wheat [16]. Besides, the pest or weed control at 500 g/ha with Field Bindweed [6] turned out to be 100%; with Morningglory [7], 100%; with Velvetleaf [8], 100%; with Barnyardgrass [9] it was 90%; with Green Foxtail [10], 100%; in the assay with Johnsongrass [11], 90%. In addition, the pest or weed control at 500 g/ha amounted to 100% in the assay on Field Bindweed [17]; 100% in the assay on Morningglory [18]; 100% with Velvetleaf [19]; 50% in the assay on Barnyardgrass [20]; 70% in the assay with Green Foxtail [21]; 60% with Johnsongrass [22].

Take `CCOC(=O)CN(c1cc(-n2nnn(CCCF)c2=O)c(F)cc1Cl)S(=O)(=O)CC` [Compound 17, ethyl [2-chloro-4-fluoro-5-[1,4-dihydro-5-oxo-4-(3-fluoropropyl)tetrazol-1-yl]-phenyl(N--ethylsulfonyl)amino]-acetate]: the plant injury at 1000 g/ha with Cotton [1] came out at 10%; with Soybean [2], 10%; in the assay on Field Corn [3], 10%; with Rice [4], 10%; with Wheat [5], 20%; in the assay on Cotton [12], 90%. Further, the plant injury at 1000 g/ha was 50% in the assay on Soybean [13], 60% in the assay with Field Corn [14], 20% in the assay on Rice [15] and 40% with Wheat [16]. Also, the pest or weed control at 1000 g/ha in the assay on Field Bindweed [6] was found to be 10%; in the assay on Morningglory [7], 30%; with Velvetleaf [8], 90%; in the assay on Barnyardgrass [9] it was 20%; with Green Foxtail [10], 30%; with Johnsongrass [11], 60%. For the same molecule, the pest or weed control at 1000 g/ha with Field Bindweed [17] came out at 80%; in the assay with Morningglory [18], 60%; in the assay on Velvetleaf [19], 95%; in the assay on Barnyardgrass [20] it was 40%; with Green Foxtail [21], 40%; in the assay on Johnsongrass [22], 40%.

As for `CCS(=O)(=O)N(c1cc(-n2nnn(CCCF)c2=O)c(F)cc1F)S(=O)(=O)CC` [Compound 20, 1-(2,4-difluoro-5-[bis(N--ethylsulfonyl)amino]phenyl]-1,4-dihydro-4-(3-fluoropropyl)-5H--tetrazol-5-one], the plant injury at 500 g/ha with Cotton [1] was 90%; in the assay on Soybean [2], 20%; in the assay with Field Corn [3] it was 90%; in the assay on Rice [4], 70%; in the assay on Wheat [5], 30%; with Cotton [12], 90%. Further, the plant injury at 500 g/ha with Soybean [13] came to 30%; in the assay with Field Corn [14] it was 20%; in the assay with Rice [15] it was 20%; with Wheat [16], 50%. The pest or weed control at 500 g/ha is 20% with Field Bindweed [6]; 70% with Morningglory [7]; 100% in the assay with Velvetleaf [8]; 90% in the assay on Barnyardgrass [9]; 95% with Green Foxtail [10]; 90% with Johnsongrass [11]. In addition, the pest or weed control at 500 g/ha in the assay with Field Bindweed [17] amounted to 30%; in the assay on Morningglory [18], 90%; in the assay with Velvetleaf [19], 100%; in the assay with Barnyardgrass [20], 30%; in the assay on Green Foxtail [21] it was 40%; in the assay with Johnsongrass [22], 30%.
